Test results taken from US12180215B2, “Substituted pyrrolo[3,4-d]imidazoles as JAK inhibitors” (HENAN MEDINNO PHARMACEUTICAL TECHNOLOGY CO., LTD., priority 2019, dated 2024).

Assays:
TYK2 = target: T1, TYK2 (Homo sapiens, UniProt P29597); assay: TYK2 kinase ADP-Glo assay (Example 60)
T1 sequence (P29597 871-1187 limits assumed): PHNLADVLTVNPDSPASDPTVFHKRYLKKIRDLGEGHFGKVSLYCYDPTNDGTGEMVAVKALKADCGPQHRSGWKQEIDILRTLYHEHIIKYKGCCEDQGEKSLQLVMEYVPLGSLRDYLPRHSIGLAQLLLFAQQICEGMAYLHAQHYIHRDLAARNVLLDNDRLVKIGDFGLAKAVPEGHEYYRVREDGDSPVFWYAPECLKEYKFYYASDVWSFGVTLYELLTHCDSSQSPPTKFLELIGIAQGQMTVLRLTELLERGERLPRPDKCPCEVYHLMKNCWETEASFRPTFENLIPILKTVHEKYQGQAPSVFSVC

JAK2 = JAK2 (Homo sapiens, UniProt O60674); assay: JAK2 kinase ADP-Glo assay (Example 60)
JAK3 = JAK3 (Homo sapiens, UniProt P52333); assay: JAK3 kinase ADP-Glo assay (Example 60)
JAK1 = JAK1 (Homo sapiens, UniProt P23458); assay: JAK1 kinase ADP-Glo assay (Example 60)
Sequence of JAK1 (P23458 850-1154 limits assumed): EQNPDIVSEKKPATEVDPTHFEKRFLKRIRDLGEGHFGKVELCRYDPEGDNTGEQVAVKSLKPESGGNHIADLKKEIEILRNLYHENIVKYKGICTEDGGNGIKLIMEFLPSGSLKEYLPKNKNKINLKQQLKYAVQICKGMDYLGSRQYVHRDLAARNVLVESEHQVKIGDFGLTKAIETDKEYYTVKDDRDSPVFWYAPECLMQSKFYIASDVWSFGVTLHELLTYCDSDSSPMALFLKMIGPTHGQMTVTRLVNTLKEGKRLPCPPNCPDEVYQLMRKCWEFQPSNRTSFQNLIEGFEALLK

Sequence of JAK2 (O60674 826-1132 limits assumed): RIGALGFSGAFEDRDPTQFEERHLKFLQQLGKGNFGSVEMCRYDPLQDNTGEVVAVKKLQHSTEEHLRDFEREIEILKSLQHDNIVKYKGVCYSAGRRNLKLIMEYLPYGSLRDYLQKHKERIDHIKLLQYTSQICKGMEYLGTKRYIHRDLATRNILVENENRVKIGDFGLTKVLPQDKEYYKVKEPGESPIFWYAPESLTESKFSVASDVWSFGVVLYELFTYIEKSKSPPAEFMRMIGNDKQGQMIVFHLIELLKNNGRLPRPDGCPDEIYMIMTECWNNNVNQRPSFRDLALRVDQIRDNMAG
Sequence of JAK3 (P52333 795-1124 limits assumed): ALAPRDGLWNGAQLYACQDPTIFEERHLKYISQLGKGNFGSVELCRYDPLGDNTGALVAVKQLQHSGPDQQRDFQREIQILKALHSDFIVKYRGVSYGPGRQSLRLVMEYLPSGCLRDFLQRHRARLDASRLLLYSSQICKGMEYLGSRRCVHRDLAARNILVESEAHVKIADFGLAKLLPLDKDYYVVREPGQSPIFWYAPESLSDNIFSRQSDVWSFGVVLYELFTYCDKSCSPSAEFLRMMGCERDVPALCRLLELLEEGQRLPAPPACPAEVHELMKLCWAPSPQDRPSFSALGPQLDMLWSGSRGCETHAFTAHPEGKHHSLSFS

Work on `CCc1cc(O)c(F)cc1-c1ccc2c(-c3nc4c([nH]3)CN(C(=O)N3CC(O)C3)C4)n[nH]c2c1` [MDI-244, (2-(6-(2-ethyl-5-fluoro-4-hydroxyphenyl)-1H-indazol-3-yl)-4,6-dihydropyrrolo[3,4-d]imidazol-5(1H)-yl)(3-hydroxylazetidin-1-yl)ketone] yielded an IC50 (TYK2) of 1.31 nM, an IC50 (JAK2) of 0.915 nM and an IC50 (JAK3) of 0.55 nM. For the same molecule, the IC50 (JAK1) was 0.248 nM.

With `CCc1cc(O)c(F)cc1-c1ccc2c(-c3nc4c([nH]3)CN(C(=O)N3CCC(C#N)C3)C4)n[nH]c2c1` (stereo not drawn) [MDI-250, 1-(2-(6-(2-ethyl-5-fluoro-4-hydroxyphenyl)-1H-indazol-3-yl)-1,4,5,6-tetrahydropyrrolo[3,4-d]imidazol-5-carbonyl)pyrrolidin-3-nitrile] the IC50 (TYK2) was 0.993 nM, the IC50 (JAK2) was 0.974 nM and the IC50 (JAK3) was 0.497 nM. It also gave an IC50 (JAK1) of 0.395 nM.

For `CCC(=O)N1Cc2nc(-c3n[nH]c4cc(-c5cc(F)c(O)cc5CC)ccc34)[nH]c2C1` [MDI-227, 1-(2-(6-(2-ethyl-5-fluoro-4-hydroxyphenyl)-1H-indazol-3-yl)-4,6-dihydropyrrolo[3,4-d]imidazol-5-(1H)-yl)propan-1-one], the IC50 (TYK2) was 3.89 nM, the IC50 (JAK2) was 0.246 nM and the IC50 (JAK3) was 0.441 nM. For the same molecule, the IC50 (JAK1) was 0.224 nM.

In the case of `CCc1cc(O)c(F)cc1-c1ccc2c(-c3nc4c([nH]3)CN(C(=O)c3ccnnc3)C4)n[nH]c2c1` [MDI-214, (2-(6-(2-ethyl-5-fluoro-4-hydroxyphenyl)-1H-indazol-3-yl)-pyrrolo[3,4-d]imidazol-5-(1H,4H,6H)-yl)(pyridazin-4-yl)ketone], the IC50 (TYK2) is reported as 2.8 nM, the IC50 (JAK2) is reported as 0.273 nM and the IC50 (JAK3) is reported as 0.352 nM. The IC50 (JAK1) was 0.303 nM.

`CCc1cc(O)c(F)cc1-c1ccc2c(-c3nc4c([nH]3)CN(C(=O)NCCO)C4)n[nH]c2c1` [MDI-248, 2-(6-(2-ethyl-5-fluoro-4-hydroxyphenyl)-1H-indazol-3-yl)-N-(2-hydroxylethyl)-4,6-dihydropyrrolo[3,4-d]imidazol-5(1H)-carboxamide] was tested, and the IC50 (TYK2) was 0.578 nM, the IC50 (JAK2) was 0.56 nM and the IC50 (JAK3) was 0.303 nM. It also gave an IC50 (JAK1) of 0.093 nM.

`CCc1cc(O)c(F)cc1-c1ccc2c(-c3nc4c([nH]3)CN(S(=O)(=O)C3CC3)C4)n[nH]c2c1` [MDI-218, 4-(3-(5-(cyclopropanesulfonyl)-1,4,5,6-tetrahydropyrrolo[3,4-d]imidazol-2-yl)-1H-indazol-6-yl)-5-ethyl-2-fluorophenol] was tested, and the IC50 (TYK2) was 1.75 nM, the IC50 (JAK2) was 0.614 nM and the IC50 (JAK3) was 0.948 nM. For the same molecule, the IC50 (JAK1) was 0.825 nM.

With `CCc1cc(O)c(F)cc1-c1cnc2c(-c3nc4c([nH]3)CN(C(=O)C3CC3)C4)n[nH]c2c1` [MDI-237, cyclopropyl (2-(6-(2-ethyl-5-fluoro-4-hydroxyphenyl)-1H-pyrazolo[4,3-b]pyridine-3-yl)-4,6-dihydropyrrolo[3,4-d]imidazol-5(1H)-yl)ketone] the IC50 (TYK2) was 9.68 nM, the IC50 (JAK2) was 0.588 nM and the IC50 (JAK3) was 1.39 nM. For the same molecule, the IC50 (JAK1) was 0.758 nM.

`CCc1cc(O)c(F)cc1-c1cc2[nH]nc(-c3nc4c([nH]3)CN(C(=O)C3CC3)C4)c2cn1` [MDI-242, cyclopropyl(2-(6-(2-ethyl-5-fluoro-4-hydroxyphenyl)-1H-pyrazolo[4,3-c]pyridine-3-yl)-4,6-dihydropyrrolo[3,4-d]imidazol-5(1H)-yl)ketone] showed an IC50 (TYK2) of 583 nM, an IC50 (JAK2) of 28.6 nM and an IC50 (JAK3) of 152 nM. The IC50 (JAK1) was 67.2 nM.

For `CCc1cc(O)c(F)cc1-c1ccc2c(-c3nc4c([nH]3)CN(Cc3cnn(C)c3)C4)n[nH]c2c1` [MDI-221, 5-ethyl-2-fluoro-4-(3-(5-((1-methyl-1H-pyrazol-4-yl)methyl)-1,4,5,6-tetrahydropyrrolo[3,4-d]imidazol-2-yl)-1H-indazol-6-yl)phenol], the IC50 (TYK2) was 7.6 nM, the IC50 (JAK2) was 0.363 nM and the IC50 (JAK3) was 0.379 nM. For the same molecule, the IC50 (JAK1) was 0.128 nM.

`CCc1cc(O)c(F)cc1-c1ccc2c(-c3nc4c([nH]3)CN(C3CCOCC3)C4)n[nH]c2c1` [MDI-225, 5-ethyl-2-fluoro-4-(3-(5-(tetrahydro-2H-pyran-4-yl)-1,4,5,6-tetrahydropyrrolo[3,4-d]imidazol-2-yl)-1H-indazol-6-yl)phenol] gave an IC50 (TYK2) of 3.5 nM, an IC50 (JAK2) of 0.39 nM and an IC50 (JAK3) of 0.487 nM. The IC50 (JAK1) was 0.226 nM.

For `CCc1cc(O)c(F)cc1-c1ccc2c(-c3nc4c([nH]3)CN(C(=O)N3CC5(CNC5)C3)C4)n[nH]c2c1` [MDI-261, (2-(6-(2-ethyl-5-fluoro-4-hydroxyphenyl)-1H-indazol-3-yl)-4,6-dihydropyrrolo[3,4-d]imidazol-5(1H)-yl)(2,6-diazaspiro[3.3]heptan-2-yl)ketone], the IC50 (TYK2) was 1.16 nM, the IC50 (JAK2) was 0.703 nM and the IC50 (JAK3) was 0.473 nM. It also gave an IC50 (JAK1) of 0.154 nM.

With `CCOC(=O)N1Cc2nc(-c3n[nH]c4cc(-c5cc(F)c(O)cc5CC)ccc34)[nH]c2C1` [MDI-253, Ethyl 2-(6-(2-ethyl-5-fluoro-4-hydroxyphenyl)-1H-indazol-3-yl)-4,6-dihydropyrrolo[3,4-d]imidazol-5(1H)-carboxylate] the IC50 (TYK2) was 31 nM, the IC50 (JAK2) was 1.6 nM and the IC50 (JAK3) was 1.5 nM. It also gave an IC50 (JAK1) of 2.9 nM.

`CCc1cc(O)c(F)cc1-c1ccc2c(-c3nc4c([nH]3)CN(C(=O)N3CCCC3)C4)n[nH]c2c1` [MDI-231, (2-(6-(2-ethyl-5-fluoro-4-hydroxyphenyl)-1H-indazol-3-yl)-4,6-dihydropyrrolo[3,4-d]imidazol-5-(1H)-yl)(pyrrolidin-1-yl)ketone] showed an IC50 (TYK2) of 1.31 nM, an IC50 (JAK2) of 1.17 nM and an IC50 (JAK3) of 0.893 nM. It also gave an IC50 (JAK1) of 0.53 nM.

Molecule `CCc1cc(O)c(F)cc1-c1ccc2c(-c3nc4c([nH]3)CN(C(=O)NC3CCC3)C4)n[nH]c2c1` [MDI-260, N-cyclobutyl-2-(6-(2-ethyl-5-fluoro-4-hydroxyphenyl)-1H-indazol-3-yl)-4,6-dihydropyrrolo[3,4-d]imidazol-5(1H)-carboxamide] has an IC50 (TYK2) of 8.98 nM, an IC50 (JAK2) of 2.99 nM and an IC50 (JAK3) of 2.47 nM. The IC50 (JAK1) was 2.28 nM.

For `CCc1cc(O)c(F)cc1-c1cc(C)c2c(-c3nc4c([nH]3)CN(C(=O)C3CC3)C4)n[nH]c2c1` [MDI-239, cyclopropyl (2-(6-(2-ethyl-5-fluoro-4-hydroxyphenyl)-4-methyl-1H-indazol-3-yl)-4,6-dihydropyrrolo[3,4-d]imidazol-5(1H)-yl)ketone], the IC50 (TYK2) was 19.2 nM, the IC50 (JAK2) was 1.2 nM and the IC50 (JAK3) was 4.94 nM. For the same molecule, the IC50 (JAK1) was 1.15 nM.

Work on `CCc1cc(O)c(F)cc1-c1ccc2c(-c3nc4c([nH]3)CN(C(=O)N3CC[C@H](O)C3)C4)n[nH]c2c1` [MDI-216, (S)-(2-(6-(2-ethyl-5-fluoro-4-hydroxyphenyl)-1H-indazol-3-yl)-4,6-dihydropyrrolo[3,4-d]imidazol-5-(1H)-yl)(3-hydroxylpyrrolidin-1-yl)ketone] yielded an IC50 (TYK2) of 1.62 nM, an IC50 (JAK2) of 0.233 nM and an IC50 (JAK3) of 0.247 nM. It also gave an IC50 (JAK1) of 0.134 nM.

`CCc1cc(O)c(F)cc1-c1ccc2c(-c3nc4c([nH]3)CN(C(=O)NC3CCOC3)C4)n[nH]c2c1` (stereo not drawn) [MDI-251, 2-(6-(2-ethyl-5-fluoro-4-hydroxyphenyl)-1H-indazol-3-yl)-N-(tetrahydrofuran-3-yl)-4,6-dihydropyrrolo[3,4-d]imidazol-5(1H)-carboxamide] was tested, and the IC50 (TYK2) was 1.33 nM, the IC50 (JAK2) was 0.818 nM and the IC50 (JAK3) was 0.406 nM. For the same molecule, the IC50 (JAK1) was 0.144 nM.

For `CCc1cc(O)c(F)cc1-c1ccc2c(-c3nc4c([nH]3)CN(C(=O)[C@@H]3CCCN3)C4)n[nH]c2c1` [MDI-262, (S)-6-(2-ethyl-5-fluoro-4-hydroxyphenyl)-3-(5-prolyl-1,4,5,6-tetrahydropyrrolo[3,4-d]imidazol-2-yl)-1H-indazol], the IC50 (TYK2) was 2.59 nM, the IC50 (JAK2) was 1.54 nM and the IC50 (JAK3) was 1.22 nM. It also gave an IC50 (JAK1) of 0.319 nM.

Work on `CCc1cc(O)c(F)cc1-c1ccc2c(-c3nc4c([nH]3)CN(C(=O)N3CC[C@@H](O)C3)C4)n[nH]c2c1` [MDI-243, (R)-(2-(6-(2-ethyl-5-fluoro-4-hydroxyphenyl)-1H-indazol-3-yl)-4,6-dihydropyrrolo[3,4-d]imidazol-5(1H)-yl)(3-hydroxylpyrrolidin-1-yl)ketone] yielded an IC50 (TYK2) of 0.167 nM, an IC50 (JAK2) of 0.499 nM and an IC50 (JAK3) of 0.269 nM. For the same molecule, the IC50 (JAK1) was 0.118 nM.

In the case of `CCc1cc(O)c(F)cc1-c1ccc2c(-c3nc4c([nH]3)CN(C(=O)N3CCCCC3)C4)n[nH]c2c1` [MDI-233, (2-(6-(2-ethyl-5-fluoro-4-hydroxyphenyl)-1H-indazol-3-yl)-4,6-dihydropyrrolo[3,4-d]imidazol-5-(1H)-yl)(piperidin-1-yl)ketone], the IC50 (TYK2) is reported as 3.5 nM, the IC50 (JAK2) is reported as 1.33 nM and the IC50 (JAK3) is reported as 2.6 nM. The IC50 (JAK1) was 1.31 nM.

For `CCc1cc(O)c(F)cc1-c1ccc2c(-c3nc4c([nH]3)CN(S(=O)(=O)C3CCCC3)C4)n[nH]c2c1` [MDI-220, 4-(3-(5-(cyclopentylsulfonyl)-1,4,5,6-tetrahydropyrrolo[3,4-d]imidazol-2-yl)-1H-indazol-6-yl)-5-ethyl-2-fluorophenol], the IC50 (TYK2) was 5.56 nM, the IC50 (JAK2) was 1.38 nM and the IC50 (JAK3) was 3.15 nM. For the same molecule, the IC50 (JAK1) was 2.02 nM.

`CCc1cc(O)c(F)cc1-c1ccc2c(-c3nc4c([nH]3)CN(CC3CC3)C4)n[nH]c2c1` [MDI-208, 4-(3-(5-(cyclopropylmethyl)-1,4,5,6-tetrahydropyrrolo[3,4-d]imidazol-2-yl)-1H-indazol-6-yl)-5-ethyl-2-fluorophenol] was tested, and the IC50 (TYK2) was 9.31 nM, the IC50 (JAK2) was 0.44 nM and the IC50 (JAK3) was 1.11 nM. For the same molecule, the IC50 (JAK1) was 0.153 nM.

`CCc1cc(O)c(F)cc1-c1ccc2c(-c3nc4c([nH]3)CN(C(=O)N3CC[C@H](O)C3)C4)n[nH]c2n1` [MDI-255, (S)-(2-(6-(2-ethyl-5-fluoro-4-hydroxyphenyl)-1H-pyrazolo[3,4-b]pyridine-3-yl)-4,6-dihydropyrrolo[3,4-d]imidazol-5(1H)-yl)(3-hydroxylpyrrolidin-1-yl)ketone] was tested, and the IC50 (JAK2) was 37.4 nM and the IC50 (JAK1) was 57.2 nM.
